Tests used:
Experiment in all cases: Kinase Profiling (KINOMEscan)
Assay type in all cases: binding
[1] = molecular target: 456 kinases (of these 395 non-mutant kinases) (Homo sapiens, UniProt Q6DT37); conditions: DMPK2; 10 μM
[2] = molecular target: 456 kinases (of these 395 non-mutant kinases) (Homo sapiens, UniProt P00519, E255K); conditions: ABL1(E255K)-phosphorylated; 10 μM
[3] = molecular target: 456 kinases (of these 395 non-mutant kinases) (Homo sapiens, UniProt Q9P286); conditions: PAK7; 10 μM
[4] = molecular target: 456 kinases (of these 395 non-mutant kinases) (Homo sapiens, UniProt P10721, D816H); conditions: KIT(D816H); 10 μM
[5] = molecular target: 456 kinases (of these 395 non-mutant kinases) (Homo sapiens, UniProt Q00536); conditions: PCTK1; 10 μM
[6] = molecular target: 456 kinases (of these 395 non-mutant kinases) (Homo sapiens, UniProt P68400); conditions: CSNK2A1; 10 μM
[7] = molecular target: 456 kinases (of these 395 non-mutant kinases) (Homo sapiens, UniProt P42684); conditions: ABL2; 10 μM
[8] = molecular target: 456 kinases (of these 395 non-mutant kinases) (Homo sapiens, UniProt Q6XUX3); conditions: RIPK5; 10 μM
[9] = molecular target: 456 kinases (of these 395 non-mutant kinases) (Homo sapiens, UniProt P36894); conditions: BMPR1A; 10 μM
[10] = molecular target: 456 kinases (of these 395 non-mutant kinases) (Homo sapiens, UniProt Q99558); conditions: NIK; 10 μM
[11] = molecular target: 456 kinases (of these 395 non-mutant kinases) (Homo sapiens, UniProt Q8NG66); conditions: NEK11; 10 μM
[12] = molecular target: 456 kinases (of these 395 non-mutant kinases) (Homo sapiens, UniProt P11802); conditions: 10 μM
[13] = molecular target: 456 kinases (of these 395 non-mutant kinases) (Homo sapiens, UniProt Q8NE63); conditions: HIPK4; 10 μM
[14] = molecular target: 456 kinases (of these 395 non-mutant kinases) (Homo sapiens, UniProt P21802); conditions: FGFR2; 10 μM
[15] = molecular target: 456 kinases (of these 395 non-mutant kinases) (Homo sapiens, UniProt P42336, E545K); conditions: PIK3CA(E545K); 10 μM
[16] = molecular target: 456 kinases (of these 395 non-mutant kinases) (Homo sapiens, UniProt O14578); conditions: CIT; 10 μM
[17] = molecular target: 456 kinases (of these 395 non-mutant kinases) (Homo sapiens, UniProt P22607, G697C); conditions: FGFR3(G697C); 10 μM
[18] = molecular target: 456 kinases (of these 395 non-mutant kinases) (Homo sapiens, UniProt Q8WXR4); conditions: MYO3B; 10 μM
[19] = molecular target: 456 kinases (of these 395 non-mutant kinases) (Homo sapiens, UniProt P49760); conditions: CLK2; 10 μM
[20] = molecular target: 456 kinases (of these 395 non-mutant kinases) (Homo sapiens, UniProt Q96SB4); conditions: SRPK1; 10 μM
[21] = molecular target: 456 kinases (of these 395 non-mutant kinases) (Homo sapiens, UniProt Q9Y2U5); conditions: MAP3K2; 10 μM
[22] = molecular target: 456 kinases (of these 395 non-mutant kinases) (Homo sapiens, UniProt Q59H18); conditions: TNNI3K; 10 μM
[23] = molecular target: 456 kinases (of these 395 non-mutant kinases) (Homo sapiens, UniProt Q9Y243); conditions: AKT3; 10 μM
[24] = molecular target: 456 kinases (of these 395 non-mutant kinases) (Homo sapiens, UniProt O14733); conditions: MKK7; 10 μM
[25] = molecular target: 456 kinases (of these 395 non-mutant kinases) (Homo sapiens, UniProt Q9UHD2); conditions: TBK1; 10 μM
[26] = molecular target: 456 kinases (of these 395 non-mutant kinases) (Homo sapiens, UniProt Q7KZI7); conditions: MARK2; 10 μM
[27] = molecular target: 456 kinases (of these 395 non-mutant kinases) (Homo sapiens, UniProt P51812); conditions: 10 μM
[28] = molecular target: 456 kinases (of these 395 non-mutant kinases) (Homo sapiens, UniProt Q8IW41); conditions: MAPKAPK5; 10 μM
[29] = molecular target: 456 kinases (of these 395 non-mutant kinases) (Homo sapiens, UniProt Q13546); conditions: RIPK1; 10 μM
[30] = molecular target: 456 kinases (of these 395 non-mutant kinases) (Homo sapiens, UniProt Q9H2G2); conditions: SLK; 10 μM
[31] = molecular target: 456 kinases (of these 395 non-mutant kinases) (Homo sapiens, UniProt Q9NRP7); conditions: STK36; 10 μM
[32] = molecular target: 456 kinases (of these 395 non-mutant kinases) (Homo sapiens, UniProt Q13627); conditions: DYRK1A; 10 μM

456 kinases (of these 395 non-mutant kinases) (Homo sapiens, UniProt P11802), sequence (P11802 2-303 limits assumed, change not shown): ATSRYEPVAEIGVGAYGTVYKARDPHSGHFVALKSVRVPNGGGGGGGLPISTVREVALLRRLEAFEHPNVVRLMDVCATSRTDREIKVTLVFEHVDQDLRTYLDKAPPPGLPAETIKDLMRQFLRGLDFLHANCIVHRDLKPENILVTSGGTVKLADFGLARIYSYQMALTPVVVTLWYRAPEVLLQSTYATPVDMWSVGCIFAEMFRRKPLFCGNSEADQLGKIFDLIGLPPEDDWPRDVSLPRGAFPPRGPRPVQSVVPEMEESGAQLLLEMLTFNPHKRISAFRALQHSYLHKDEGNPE
456 kinases (of these 395 non-mutant kinases) (Homo sapiens, UniProt P22607, G697C), sequence (P22607 23-806 G697C limits assumed): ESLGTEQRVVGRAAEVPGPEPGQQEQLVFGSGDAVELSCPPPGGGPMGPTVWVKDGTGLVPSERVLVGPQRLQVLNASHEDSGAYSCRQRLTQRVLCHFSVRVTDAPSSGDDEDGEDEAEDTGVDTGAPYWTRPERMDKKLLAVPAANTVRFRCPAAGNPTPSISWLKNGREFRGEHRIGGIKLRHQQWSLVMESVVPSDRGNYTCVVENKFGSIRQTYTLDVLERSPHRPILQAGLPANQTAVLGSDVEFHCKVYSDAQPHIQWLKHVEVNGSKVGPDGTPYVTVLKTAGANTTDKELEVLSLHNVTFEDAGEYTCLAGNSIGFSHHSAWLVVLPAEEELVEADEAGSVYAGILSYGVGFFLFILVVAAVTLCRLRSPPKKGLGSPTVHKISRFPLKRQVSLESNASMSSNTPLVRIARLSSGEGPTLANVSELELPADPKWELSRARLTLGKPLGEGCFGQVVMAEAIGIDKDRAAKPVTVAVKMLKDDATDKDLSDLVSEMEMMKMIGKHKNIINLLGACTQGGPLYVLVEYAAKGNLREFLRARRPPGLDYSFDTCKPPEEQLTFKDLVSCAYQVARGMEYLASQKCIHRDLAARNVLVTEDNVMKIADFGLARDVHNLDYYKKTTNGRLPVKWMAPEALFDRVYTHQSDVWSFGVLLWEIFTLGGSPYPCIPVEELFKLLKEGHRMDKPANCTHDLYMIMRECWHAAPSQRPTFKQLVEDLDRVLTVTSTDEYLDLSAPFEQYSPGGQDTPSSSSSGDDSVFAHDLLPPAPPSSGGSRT
456 kinases (of these 395 non-mutant kinases) (Homo sapiens, UniProt P36894), sequence (P36894 24-532 limits assumed, change not shown): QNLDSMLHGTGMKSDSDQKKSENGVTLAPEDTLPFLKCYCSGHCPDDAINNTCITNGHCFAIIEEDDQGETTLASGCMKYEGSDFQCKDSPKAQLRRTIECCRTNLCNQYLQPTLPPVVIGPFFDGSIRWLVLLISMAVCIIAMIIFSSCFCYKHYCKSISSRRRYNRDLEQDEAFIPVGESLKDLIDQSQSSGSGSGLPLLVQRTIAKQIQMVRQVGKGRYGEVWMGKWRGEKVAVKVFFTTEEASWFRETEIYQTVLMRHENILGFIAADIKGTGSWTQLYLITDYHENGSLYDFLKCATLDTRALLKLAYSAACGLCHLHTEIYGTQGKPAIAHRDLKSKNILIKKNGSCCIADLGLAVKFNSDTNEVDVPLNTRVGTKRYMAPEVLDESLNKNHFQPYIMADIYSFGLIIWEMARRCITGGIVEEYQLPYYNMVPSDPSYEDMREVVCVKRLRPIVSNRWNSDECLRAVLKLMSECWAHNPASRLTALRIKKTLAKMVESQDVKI
456 kinases (of these 395 non-mutant kinases) (Homo sapiens, UniProt O14733), sequence (O14733 2-419 limits assumed, change not shown): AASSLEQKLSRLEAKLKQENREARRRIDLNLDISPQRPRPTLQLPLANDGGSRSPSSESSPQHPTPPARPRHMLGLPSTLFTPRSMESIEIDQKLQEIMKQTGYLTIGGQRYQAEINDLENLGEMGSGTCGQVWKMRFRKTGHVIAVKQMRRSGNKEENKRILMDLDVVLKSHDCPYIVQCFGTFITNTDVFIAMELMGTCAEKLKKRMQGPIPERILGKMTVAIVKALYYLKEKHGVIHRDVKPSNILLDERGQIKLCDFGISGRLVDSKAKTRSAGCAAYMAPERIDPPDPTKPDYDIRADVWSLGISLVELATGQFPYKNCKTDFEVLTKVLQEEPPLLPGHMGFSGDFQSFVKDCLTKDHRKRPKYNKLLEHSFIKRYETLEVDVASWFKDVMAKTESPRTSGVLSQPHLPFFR
456 kinases (of these 395 non-mutant kinases) (Homo sapiens, UniProt P21802), sequence (P21802 22-821 limits assumed, stated change not applied): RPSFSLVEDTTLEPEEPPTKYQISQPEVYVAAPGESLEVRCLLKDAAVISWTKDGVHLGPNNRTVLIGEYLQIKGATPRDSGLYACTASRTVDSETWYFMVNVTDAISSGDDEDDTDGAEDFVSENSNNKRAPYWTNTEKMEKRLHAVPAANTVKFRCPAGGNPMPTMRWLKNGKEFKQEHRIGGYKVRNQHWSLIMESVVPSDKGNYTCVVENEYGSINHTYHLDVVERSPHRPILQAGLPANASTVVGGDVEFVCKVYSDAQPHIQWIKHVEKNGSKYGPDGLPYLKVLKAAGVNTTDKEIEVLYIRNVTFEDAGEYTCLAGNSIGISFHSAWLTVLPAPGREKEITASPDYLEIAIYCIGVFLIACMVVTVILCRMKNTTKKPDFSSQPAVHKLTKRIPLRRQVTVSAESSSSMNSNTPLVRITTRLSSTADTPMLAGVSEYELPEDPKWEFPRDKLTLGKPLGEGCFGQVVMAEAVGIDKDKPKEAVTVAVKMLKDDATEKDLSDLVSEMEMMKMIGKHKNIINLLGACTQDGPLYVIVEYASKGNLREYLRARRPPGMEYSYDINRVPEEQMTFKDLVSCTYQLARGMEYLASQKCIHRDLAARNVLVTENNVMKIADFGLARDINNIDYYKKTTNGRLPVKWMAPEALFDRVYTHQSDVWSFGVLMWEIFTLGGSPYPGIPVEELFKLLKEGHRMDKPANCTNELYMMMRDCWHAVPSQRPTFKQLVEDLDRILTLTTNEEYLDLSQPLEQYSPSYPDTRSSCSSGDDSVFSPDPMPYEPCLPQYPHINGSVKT
456 kinases (of these 395 non-mutant kinases) (Homo sapiens, UniProt P42684), sequence (P42684 2-1182 limits assumed, change not shown): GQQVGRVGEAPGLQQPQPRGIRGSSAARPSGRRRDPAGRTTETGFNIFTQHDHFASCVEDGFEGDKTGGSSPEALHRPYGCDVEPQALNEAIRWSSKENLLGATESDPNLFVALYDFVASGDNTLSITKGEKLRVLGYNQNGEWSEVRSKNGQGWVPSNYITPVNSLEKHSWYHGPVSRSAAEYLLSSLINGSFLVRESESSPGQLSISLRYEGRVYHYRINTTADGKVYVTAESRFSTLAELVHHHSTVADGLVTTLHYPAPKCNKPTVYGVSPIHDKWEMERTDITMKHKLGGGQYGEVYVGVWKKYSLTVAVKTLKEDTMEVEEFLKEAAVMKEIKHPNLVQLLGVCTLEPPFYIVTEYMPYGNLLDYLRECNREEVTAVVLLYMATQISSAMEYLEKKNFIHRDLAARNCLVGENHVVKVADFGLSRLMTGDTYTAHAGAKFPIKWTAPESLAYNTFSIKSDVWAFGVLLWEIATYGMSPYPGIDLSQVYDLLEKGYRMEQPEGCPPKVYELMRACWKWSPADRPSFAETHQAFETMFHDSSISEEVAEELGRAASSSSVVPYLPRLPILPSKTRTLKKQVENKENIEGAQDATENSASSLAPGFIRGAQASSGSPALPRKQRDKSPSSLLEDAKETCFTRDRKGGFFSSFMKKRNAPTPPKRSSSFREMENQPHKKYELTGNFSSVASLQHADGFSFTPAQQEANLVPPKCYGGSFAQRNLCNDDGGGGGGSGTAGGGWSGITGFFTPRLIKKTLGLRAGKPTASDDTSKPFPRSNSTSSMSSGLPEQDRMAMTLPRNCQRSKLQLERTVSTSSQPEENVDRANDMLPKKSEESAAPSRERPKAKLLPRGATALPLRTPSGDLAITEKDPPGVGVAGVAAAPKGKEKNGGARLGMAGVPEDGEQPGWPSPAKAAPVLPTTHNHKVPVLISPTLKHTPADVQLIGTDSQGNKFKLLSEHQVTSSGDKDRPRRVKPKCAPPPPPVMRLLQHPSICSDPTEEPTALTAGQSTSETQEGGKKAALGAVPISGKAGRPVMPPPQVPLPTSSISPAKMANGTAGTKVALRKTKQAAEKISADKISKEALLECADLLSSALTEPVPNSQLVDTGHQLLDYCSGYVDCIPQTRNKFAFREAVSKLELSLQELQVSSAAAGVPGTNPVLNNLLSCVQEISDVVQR
456 kinases (of these 395 non-mutant kinases) (Homo sapiens, UniProt P10721, D816H), sequence (P10721 26-976 D816H limits assumed): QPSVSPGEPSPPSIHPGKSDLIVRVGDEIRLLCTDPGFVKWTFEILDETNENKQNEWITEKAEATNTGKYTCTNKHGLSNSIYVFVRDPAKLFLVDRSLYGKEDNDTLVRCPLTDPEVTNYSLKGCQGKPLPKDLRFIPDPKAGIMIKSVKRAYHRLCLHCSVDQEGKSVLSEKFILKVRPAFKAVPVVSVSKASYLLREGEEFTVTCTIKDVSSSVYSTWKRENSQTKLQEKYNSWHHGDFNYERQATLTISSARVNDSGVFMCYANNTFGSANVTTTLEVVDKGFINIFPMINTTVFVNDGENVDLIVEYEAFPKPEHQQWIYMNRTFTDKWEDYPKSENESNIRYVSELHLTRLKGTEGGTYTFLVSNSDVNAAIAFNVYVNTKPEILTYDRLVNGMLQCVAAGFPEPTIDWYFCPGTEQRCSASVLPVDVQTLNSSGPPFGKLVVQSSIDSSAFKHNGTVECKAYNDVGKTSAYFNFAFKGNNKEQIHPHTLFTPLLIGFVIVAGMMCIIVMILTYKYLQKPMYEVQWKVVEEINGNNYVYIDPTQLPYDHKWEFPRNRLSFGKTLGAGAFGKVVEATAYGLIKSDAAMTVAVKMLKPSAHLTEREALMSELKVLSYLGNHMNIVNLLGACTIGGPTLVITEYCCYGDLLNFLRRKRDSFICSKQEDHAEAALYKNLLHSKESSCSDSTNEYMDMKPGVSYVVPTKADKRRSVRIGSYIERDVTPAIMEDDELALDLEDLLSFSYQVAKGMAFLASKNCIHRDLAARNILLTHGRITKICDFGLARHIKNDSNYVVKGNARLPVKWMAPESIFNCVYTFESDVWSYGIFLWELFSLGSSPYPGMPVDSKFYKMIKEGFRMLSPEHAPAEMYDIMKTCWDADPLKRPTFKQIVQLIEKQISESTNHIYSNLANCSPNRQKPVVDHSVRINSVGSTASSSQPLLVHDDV

SMILES: CCc1ccccc1NC(=O)c1c(C)nsc1Nc1cnc2cc(F)ccc2n1 [Example 20, N-(2-Ethylphenyl)-5-[(6-fluoroquinoxalin-2-yl)amino]-3-methyl-1,2-thiazole-4-carboxamide]
- % Ctrl @ 10 μM [1]: 79 % Ctrl
- % Ctrl @ 10 μM [2]: 100 % Ctrl
- % Ctrl @ 10 μM [3]: 94 % Ctrl
- % Ctrl @ 10 μM [4]: 97 % Ctrl
- % Ctrl @ 10 μM [5]: 100 % Ctrl
- % Ctrl @ 10 μM [6]: 85 % Ctrl
- % Ctrl @ 10 μM [7]: 100 % Ctrl
- % Ctrl @ 10 μM [8]: 100 % Ctrl
- % Ctrl @ 10 μM [9]: 100 % Ctrl
- % Ctrl @ 10 μM [10]: 96 % Ctrl
- % Ctrl @ 10 μM [11]: 92 % Ctrl
- % Ctrl @ 10 μM ([12]; CDK4-cyclinD1): 85 % Ctrl
- % Ctrl @ 10 μM ([12]; CDK4-cyclinD3): 93 % Ctrl
- % Ctrl @ 10 μM [13]: 97 % Ctrl
- % Ctrl @ 10 μM [14]: 80 % Ctrl
- % Ctrl @ 10 μM [15]: 84 % Ctrl
- % Ctrl @ 10 μM [16]: 80 % Ctrl
- % Ctrl @ 10 μM [17]: 87 % Ctrl
- % Ctrl @ 10 μM [18]: 100 % Ctrl
- % Ctrl @ 10 μM [19]: 77 % Ctrl
- % Ctrl @ 10 μM [20]: 86 % Ctrl
- % Ctrl @ 10 μM [21]: 100 % Ctrl
- % Ctrl @ 10 μM [22]: 85 % Ctrl
- % Ctrl @ 10 μM [23]: 100 % Ctrl
- % Ctrl @ 10 μM [24]: 100 % Ctrl
- % Ctrl @ 10 μM [25]: 91 % Ctrl
- % Ctrl @ 10 μM [26]: 83 % Ctrl
- % Ctrl @ 10 μM ([27]; RSK2(Kin.Dom.1-N-terminal)): 100 % Ctrl
- % Ctrl @ 10 μM ([27]; RSK2(Kin.Dom.2-C-terminal)): 100 % Ctrl
- % Ctrl @ 10 μM [28]: 100 % Ctrl
- % Ctrl @ 10 μM [29]: 99 % Ctrl
- % Ctrl @ 10 μM [30]: 95 % Ctrl
- % Ctrl @ 10 μM [31]: 75 % Ctrl
- % Ctrl @ 10 μM [32]: 100 % Ctrl
